From BindingDB's records for doi:10.1016/j.ejmech.2012.01.025 (National Institute On Drug Abuse and The National Institute …, 2012)

target: Delta-type opioid receptor (Homo sapiens, UniProt P41143); assay: Displacement of [3H]-DADLE from human delta opioid receptor expressed in CHO cells membrane after 2 hrs by liquid scintillation counting
Sequence (P41143 whole entry): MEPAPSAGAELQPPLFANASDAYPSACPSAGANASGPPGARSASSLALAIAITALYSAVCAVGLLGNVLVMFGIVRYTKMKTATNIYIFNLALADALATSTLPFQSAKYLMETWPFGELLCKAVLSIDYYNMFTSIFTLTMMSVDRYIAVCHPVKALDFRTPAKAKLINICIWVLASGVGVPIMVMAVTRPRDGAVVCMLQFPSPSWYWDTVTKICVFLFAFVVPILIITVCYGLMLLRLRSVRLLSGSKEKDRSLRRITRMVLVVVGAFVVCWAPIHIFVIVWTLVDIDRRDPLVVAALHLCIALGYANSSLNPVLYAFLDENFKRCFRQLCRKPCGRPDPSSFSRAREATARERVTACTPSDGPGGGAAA

| SMILES | Ki [µM] |
| --- | --- |
| CN1C[C@@H](O)[C@]2(c3cccc(O)c3)CCC[C@H]1C2 | > 15 |
| Oc1cccc([C@@]23CCC[C@@H](C2)N(CCc2ccccc2)C[C@@H]3O)c1 | 5.8 |
| CN1C2CCC[C@@](c3cccc(O)c3)(C2)[C@@H]1CO | > 10 |
| CN1C[C@H](O)[C@]2(c3cccc(O)c3)CCC[C@H]1C2 | 7.2 |
| CN1CC2(OCCO2)[C@]2(c3cccc(O)c3)CCC[C@H]1C2 | > 7.8 |
| Oc1cccc([C@@]23CCC[C@@H](C2)N(CCc2ccccc2)C[C@H]3O)c1 | 1 |
